The text below walks through data of patent US20080318939A1, “METHODS FOR TREATING OPHTHALMIC DISORDERS” (priority 2007, published 2008).

The test system of one data set is leukemia cells. Nature of the data set: inhibition of proliferation of leukemia cells. It is filed as cell-based. The following applies: cells associated with a cell proliferation condition.
Another data set concerns normal bone marrow cells. Kind of data set: inhibition of proliferation of normal bone marrow cells. Particulars: specificity. It is filed as cell-based.
Data set [1] is described as follows: permeation of the blood-brain barrier.

Turning to `CN1CCCC1CCNC(=O)c1cn2c3c(c(N4CCC(c5cnccn5)C4)c(F)cc3c1=O)Oc1cc3ccccc3cc1-2` (stereo not drawn) [TA1-1A], in the data set on leukemia cells, the “inhibition of leukemia cells” value is “inhibits leukemia cells”. Further, the “inhibition of normal bone marrow cells” value with normal bone marrow cells is reported as “without inhibiting normal bone marrow cells”. On to `CC(=O)N1CCN(c2nc3c(cc2F)c(=O)c(C(=O)NCCN2CCCC2)c2n(C)c4ccccc4n32)CC1` [TA4-1 A], for which the blood-brain barrier permeation result in data set [1] is “significantly permeates the blood-brain barrier”.
